The values below come from patent publication US12679878B2, “CRF2 receptor agonists and their use in therapy” (SANOFI, priority 2020, dated 2026).

For this assay, the target named is T1, human CRF2α receptor (Homo sapiens, UniProt Q13324).
T1 construct: expressed in transfected cells; host or cells: TeloHEAC
T1 sequence (Q13324 1-411): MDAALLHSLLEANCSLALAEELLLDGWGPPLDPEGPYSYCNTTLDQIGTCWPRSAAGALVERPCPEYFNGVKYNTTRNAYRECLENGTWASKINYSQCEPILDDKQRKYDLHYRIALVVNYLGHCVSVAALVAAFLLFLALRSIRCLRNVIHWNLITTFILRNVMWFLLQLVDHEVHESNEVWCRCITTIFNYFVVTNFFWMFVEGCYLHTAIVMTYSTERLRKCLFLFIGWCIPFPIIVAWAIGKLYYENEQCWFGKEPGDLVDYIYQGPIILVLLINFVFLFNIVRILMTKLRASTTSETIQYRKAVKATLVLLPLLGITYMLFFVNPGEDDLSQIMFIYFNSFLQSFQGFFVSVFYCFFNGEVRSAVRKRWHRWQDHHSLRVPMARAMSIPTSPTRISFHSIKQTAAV
The assay can be described thus: cAMP agonism at human CRF2 α receptor in TeloHEAC cells (Example 7). It is filed as cell-based. The essentials:
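Thawed frozen stably transfected cells in HBSS/20 mM HEPES (0% or 0.1% HSA) plus 2 mM IBMX were exposed to compound at 2000 cells/well for 30 min at room temperature. Intracellular cAMP was read by HTRF (665/620 nm ratio) after 1 h lysis; EC50 was derived with 1000 nM urocortin 2 set as 100%.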

Setting [1] is: cAMP HTRF, TeloHEAC cells stably expressing human CRF2 α, 0% HSA, read-out: EC50 [nM], 0% HSA.
Where [2] appears, read: cAMP HTRF, TeloHEAC cells stably expressing human CRF2 α, 0.1% HSA, read-out: EC50 [nM], 0.1% HSA.

Where two headings read alike, the source gives them in different places. Starred links: 1 amine or outer side, 2 acyl side, 3 side chain; linkers in the order of their positions; H or OH if unused. Residues, ends and D or L forms follow the SMILES beside them. Groups on a side chain read outwards from the residue. *: point of attachment. C18 diacid = O=C(O)CCCCCCCCCCCCCCCCC(=O)*; γGlu = O=C(O)[C@H](CCC(=O)[*:2])N[*:1]; AEEA = NCCOCCOCC(=O)O

The EC50 is the concentration at which the effect is half-maximal. For `CC[C@H](C)[C@H](NC(=O)[C@H](CCC(N)=O)NC(=O)[C@H](CCCCN)NC(=O)[C@H](CC(N)=O)NC(=O)[C@@H](NC(=O)[C@H](CCCCN)NC(=O)[C@H](C)NC(=O)[C@H](CCCCN)NC(=O)[C@H](CCC(N)=O)NC(=O)[C@H](CCCNC(=N)N)NC(=O)[C@H](CCC(N)=O)NC(=O)[C@H](CCCCN)NC(=O)[C@H](CCCCN)NC(=O)[C@H](CCC(N)=O)NC(=O)[C@H](CCCCN)NC(=O)[C@H](CCC(=O)O)NC(=O)[C@H](CCC(N)=O)NC(=O)[C@H](CCCCN)NC(=O)[C@H](CC(C)C)NC(=O)[C@H](CC(C)C)NC(=O)[C@@H](NC(=O)[C@H](CCC(N)=O)NC(=O)[C@H](CCCCNC(=O)COCCOCCNC(=O)COCCOCCNC(=O)CC[C@H](NC(=O)CCCCCCCCCCCCCCCCC(=O)O)C(=O)O)NC(=O)[C@@H](NC(=O)[C@H](CCCCN)NC(=O)[C@@H](NC(=O)[C@@H]1CCCN1C(=O)[C@@H](NC(=O)[C@H](CC(=O)O)NC(=O)[C@H](CC(C)C)NC(=O)[C@H](CO)NC(=O)[C@H](CC(C)C)NC(=O)[C@@H](NC(=O)[C@@H](N)Cc1ccccc1)[C@@H](C)O)C(C)C)[C@@H](C)O)[C@@H](C)CC)[C@@H](C)CC)[C@@H](C)O)C(=O)N[C@@H](CC(C)C)C(=O)N[C@@H](CCC(=O)O)C(=O)N[C@@H](CCCNC(=N)N)C(=O)N[C@H](C(N)=O)C(C)C` [compound 143] (H-FTLSLDVPTKIK([AEEA-AEEA-γGlu-C18 diacid])QILLKQEKQKKQRQKAKTNKQILERV-NH2), the EC50 turned out to be 1.44 nM (EC50 [nM], 0% HSA) and 93.8 nM (EC50 [nM], 0.1% HSA).
As for `CC[C@H](C)[C@H](NC(=O)[C@H](CCC(N)=O)NC(=O)[C@H](CCCCN)NC(=O)[C@H](CC(N)=O)NC(=O)[C@@H](NC(=O)[C@H](CCCCN)NC(=O)[C@H](C)NC(=O)[C@H](CCCCN)NC(=O)[C@H](CCC(N)=O)NC(=O)[C@H](CCCNC(=N)N)NC(=O)[C@H](CCC(N)=O)NC(=O)[C@H](CCCCN)NC(=O)[C@H](CCCCN)NC(=O)[C@H](CCC(N)=O)NC(=O)[C@H](CCCNC(=N)N)NC(=O)[C@H](CCC(=O)O)NC(=O)[C@H](CCC(N)=O)NC(=O)[C@H](CCCCN)NC(=O)[C@H](CC(C)C)NC(=O)[C@H](CC(C)C)NC(=O)[C@@H](NC(=O)[C@H](CCC(N)=O)NC(=O)[C@H](CCCCNC(=O)COCCOCCNC(=O)COCCOCCNC(=O)CC[C@H](NC(=O)CCCCCCCCCCCCCCCCC(=O)O)C(=O)O)NC(=O)[C@@H](NC(=O)[C@H](CCCCN)NC(=O)[C@@H](NC(=O)[C@@H]1CCCN1C(=O)[C@@H](NC(=O)[C@H](CC(=O)O)NC(=O)[C@H](CC(C)C)NC(=O)[C@H](CO)NC(=O)[C@H](CC(C)C)NC(=O)[C@@H](NC(=O)[C@@H](N)Cc1ccccc1)[C@@H](C)O)C(C)C)[C@@H](C)O)[C@@H](C)CC)[C@@H](C)CC)[C@@H](C)O)C(=O)N[C@@H](CC(C)C)C(=O)N[C@@H](CCC(=O)O)C(=O)N[C@@H](CCCNC(=N)N)C(=O)N[C@H](C(N)=O)C(C)C` [compound 144] (H-FTLSLDVPTKIK([AEEA-AEEA-γGlu-C18 diacid])QILLKQERQKKQRQKAKTNKQILERV-NH2), the concentration for a half-maximal effect (EC50) is 1.36 nM under setting [1] and 76.3 nM under setting [2].
The like results for `CC[C@H](C)[C@H](NC(=O)[C@H](CCC(N)=O)NC(=O)[C@H](CCCCN)NC(=O)[C@H](CC(N)=O)NC(=O)[C@H](CCCCN)NC(=O)[C@H](CCCCN)NC(=O)[C@H](C)NC(=O)[C@H](CCCCN)NC(=O)[C@H](CCC(N)=O)NC(=O)[C@H](CCCNC(=N)N)NC(=O)[C@H](CCC(N)=O)NC(=O)[C@H](CCCCN)NC(=O)[C@H](CCCCN)NC(=O)[C@H](CCC(N)=O)NC(=O)[C@H](CCCNC(=N)N)NC(=O)[C@H](CCC(=O)O)NC(=O)[C@H](CCC(N)=O)NC(=O)[C@H](CCCCN)NC(=O)[C@H](CC(C)C)NC(=O)[C@H](CC(C)C)NC(=O)[C@@H](NC(=O)[C@H](CCC(N)=O)NC(=O)[C@H](CCCCNC(=O)COCCOCCNC(=O)COCCOCCNC(=O)CC[C@H](NC(=O)CCCCCCCCCCCCCCCCC(=O)O)C(=O)O)NC(=O)[C@@H](NC(=O)[C@H](CCCCN)NC(=O)[C@@H](NC(=O)[C@@H]1CCCN1C(=O)[C@@H](NC(=O)[C@H](CC(=O)O)NC(=O)[C@H](CC(C)C)NC(=O)[C@H](CO)NC(=O)[C@H](CC(C)C)NC(=O)[C@@H](NC(=O)[C@@H](N)Cc1ccccc1)[C@@H](C)O)C(C)C)[C@@H](C)O)[C@@H](C)CC)[C@@H](C)CC)C(=O)N[C@@H](CC(C)C)C(=O)N[C@@H](CCC(=O)O)C(=O)N[C@@H](CCCNC(=N)N)C(=O)N[C@H](C(N)=O)C(C)C` [compound 145] (H-FTLSLDVPTKIK([AEEA-AEEA-γGlu-C18 diacid])QILLKQERQKKQRQKAKKNKQILERV-NH2) were, in that order, 1.46 nM and 96.9 nM.
Take `CC[C@H](C)[C@H](NC(C)=O)C(=O)N[C@H](C(=O)N[C@@H](CC(C)C)C(=O)N[C@@H](CO)C(=O)N[C@@H](CC(C)C)C(=O)N[C@@H](CC(=O)O)C(=O)N[C@H](C(=O)N1CCC[C@H]1C(=O)N[C@H](C(=O)NCC(=O)N[C@@H](CC(C)C)C(=O)N[C@@H](CCCCNC(=O)COCCOCCNC(=O)COCCOCCNC(=O)CC[C@H](NC(=O)CCCCCCCCCCCCCCCCC(=O)O)C(=O)O)C(=O)N[C@@H](CCC(N)=O)C(=O)N[C@H](C(=O)N[C@@H](CC(C)C)C(=O)N[C@@H](CC(C)C)C(=O)N[C@@H](CCC(=O)O)C(=O)N[C@@H](CCC(N)=O)C(=O)N[C@@H](CCC(=O)O)C(=O)N[C@@H](CCCCN)C(=O)N[C@@H](CCC(N)=O)C(=O)N[C@@H](CCC(=O)O)C(=O)N[C@@H](CCCCN)C(=O)N[C@@H](CCC(=O)O)C(=O)N[C@@H](CCCCN)C(=O)N[C@@H](CCC(N)=O)C(=O)N[C@@H](CCC(N)=O)C(=O)N[C@@H](C)C(=O)N[C@@H](CCC(=O)O)C(=O)N[C@H](C(=O)N[C@@H](CC(N)=O)C(=O)N[C@@H](C)C(=O)N[C@@H](CCC(N)=O)C(=O)N[C@H](C(=O)N[C@@H](CC(C)C)C(=O)N[C@@H](C)C(=O)N[C@@H](CCC(N)=O)C(=O)N[C@H](C(N)=O)C(C)C)[C@@H](C)CC)[C@@H](C)O)[C@@H](C)CC)[C@@H](C)CC)C(C)C)C(C)C` [compound 153] (Ac-IVLSLDVPIGLK([AEEA-AEEA-γGlu-C18 diacid])QILLEQEKQEKEKQQAETNAQILAQV-NH2): the EC50 under setting [1] was 33.7 nM.
Consider `CC[C@H](C)[C@H](N)C(=O)N[C@H](C(=O)N[C@@H](CC(C)C)C(=O)N[C@@H](CO)C(=O)N[C@@H](CC(C)C)C(=O)N[C@@H](CC(=O)O)C(=O)N[C@H](C(=O)N1CCC[C@H]1C(=O)N[C@H](C(=O)NCC(=O)N[C@@H](CC(C)C)C(=O)N[C@@H](CCCCNC(=O)COCCOCCNC(=O)COCCOCCNC(=O)CC[C@H](NC(=O)CCCCCCCCCCCCCCCCC(=O)O)C(=O)O)C(=O)N[C@@H](CCC(N)=O)C(=O)N[C@H](C(=O)N[C@@H](CC(C)C)C(=O)N[C@@H](CC(C)C)C(=O)N[C@@H](CCC(=O)O)C(=O)N[C@@H](CCC(N)=O)C(=O)N[C@@H](CCC(=O)O)C(=O)N[C@@H](CCCCN)C(=O)N[C@@H](CCC(N)=O)C(=O)N[C@@H](CCC(=O)O)C(=O)N[C@@H](CCCCN)C(=O)N[C@@H](CCC(=O)O)C(=O)N[C@@H](CCCCN)C(=O)N[C@@H](CCC(N)=O)C(=O)N[C@@H](CCC(N)=O)C(=O)N[C@@H](C)C(=O)N[C@@H](CCC(=O)O)C(=O)N[C@H](C(=O)N[C@@H](CC(N)=O)C(=O)N[C@@H](CCCCN)C(=O)N[C@@H](CCCNC(=N)N)C(=O)N[C@H](C(=O)N[C@@H](CC(C)C)C(=O)N[C@@H](CCC(=O)O)C(=O)N[C@@H](CCCNC(=N)N)C(=O)N[C@H](C(N)=O)C(C)C)[C@@H](C)CC)[C@@H](C)O)[C@@H](C)CC)[C@@H](C)CC)C(C)C)C(C)C` [compound 154] (H-IVLSLDVPIGLK([AEEA-AEEA-γGlu-C18 diacid])QILLEQEKQEKEKQQAETNKRILERV-NH2; N-terminus assumed), for which the concentration giving a half-maximal response (EC50) stood at 15 nM under setting [1] and 15.3 nM under setting [2].
